Measured values from US12208228B2, “Microneedle array comprising a heat-producing element” (LTS LOHMANN THERAPIE-SYSTEME AG, priority 2019, dated 2025).

Assay: In vitro permeation studies in static vertical Franz cells, microneedle systems pressed into dermatomized minipig skin
Format: in vitro ADME, Göttingen Minipigs
Description: The back part of Gottinger Minipighaut (Ellegaard Göttingen Minipigs Agricultural Service, Dalmose, Denmark) was used as the skin. The skin, which is delivered as a so-called full skin without subcutaneous fatty tissue in a frozen state, must first be thawed at room temperature and carefully shaved with plenty of water without using any shaving foam to remove the bristles. The skin is then dermatomized or cut to a layer thickness of 800 μm with the aid of an Acculan 3TI battery-powered electric dermatome (Aesculap AG, Tuttlingen, Germany). Circular punched pieces having a diameter of 25 mm are then knocked out of the pieces of skin treated in this way with the help of a corresponding punching tool, for example, a handle punch and are stored shrink-wrapped in PE bags until further use at −20 degrees Celsius (maximum storage period under these conditions up to 12 months).
The permeation studies were performed in static and vertical Franz cells (Glastechnik Gräfenroda, Germany) with a diffusion area of 1.595 cm^2 and an acceptor volume of 10 ml. The acceptor medium used was phosphate buffer having a pH value of 7.4 according to DAB 10, tempered to 32° C. during the entire permeation time and constantly stirred for uniform mixing of the permeated active ingredient. The acceptor medium was completely replaced by fresh one at the scheduled sampling times. Before the pre-prepared skin punches are clamped in the Franz cells and filled with acceptor, the microneedle systems must first be pressed into the top layer of skin using a manufactured pressure adapter, in the sense of a nail gun with an impulse strength of 150 N/cm^2.
Before filling with the acceptor and inserting the Franz cells into the water bath controlled to a temperature of 32° C., the temperature-controlled cell heads are put on or they are prepared with an active heat pack mixture, see also the figures including explanations.
The analytical determination was carried out by means of HPLC on a C18-Inertsil separation column (250×4.6 mm, 5 μm particle size; VDS Optilab, Berlin) by means of UV detection at 282 nm and at 30 degrees Celsius. A mixture consisting of acetonitrile, methanol and 0.02167 m sodium dihydrogen phosphate solution 10:20:85 (v %/v %/v %) and a pH of 3.2 was used as the eluent. The flow rate was 1.0 ml/min and 20 μl were injected.
The analytical determination was carried out by means of HPLC on a C12-Synergi-Max-RP separation column (150×4.6 mm, 4 μm particle size; Phenomenex, Aschaffenburg) by means of UV detection at 273 nm and at 25 degrees Celsius. A mixture consisting of methanol and HPLC water 40:60 (v %/v %) was used as an eluent. The flow rate was 1.0 ml/min and 20 μl were injected.

| lag time (FIG. 2, inventive example with external heat generation (heatable thermostated-water cell head), period up to 6 hours) [min] | amount or rate of release of API, factor greater than that of the reference (FIG. 2, inventive example with heat (heatable cell head) vs reference without heat, up to 6 hours) | lag time (FIG. 2, reference system without additional heat generation, period up to 6 hours) [min] | lag time of reference larger than inventive example by a factor (FIG. 2, reference without heat vs inventive example with heat) | lag time (FIG. 3, inventive example with external heat generation (heatable thermostated-water cell head), period of 60 minutes) [min] | amount or rate of release of API, factor greater than that of the reference (FIG. 3, inventive example with heat (heatable cell head) vs reference without heat, 60 minutes) | lag time (FIG. 3, reference system without additional heat generation, period of 60 minutes) [min] | lag time of reference larger than inventive example by a factor (FIG. 3, reference without heat vs inventive example with heat) | amount or rate of release of API, factor greater than that of the reference (FIG. 4, inventive example with commercial heat pack vs reference without heat, up to 6 hours) | lag time (FIG. 4, inventive example with heat from commercial heat pack (Thermopad; pyrophoric iron, activated carbon, sodium chloride), period up to 6 hours) [min] | lag time (FIG. 4, reference system without additional heat generation, period up to 6 hours) [min] | lag time of reference larger than inventive example by a factor (FIG. 4, reference without heat vs inventive example with heat pack) | Compound | lag time (FIG. 5, inventive example with external heat generation (heatable thermostated-water cell head), period of 8 hours) [min] | amount or rate of release of API, factor greater than that of the reference (FIG. 5, inventive example with heat (heatable cell head) vs reference without heat, 8 hours) | lag time (FIG. 5, reference system without additional heat generation, period of 8 hours) [min] | lag time of reference larger than inventive example by a factor (FIG. 5, reference without heat vs inventive example with heat) |
| --- | --- | --- | --- | --- | --- | --- | --- | --- | --- | --- | --- | --- | --- | --- | --- | --- |
| 20 | ~5 | 40 | 2 | 0.5 | ~4 | 1.0 | 2 | ~8 | 0.1 | 0.4 | 4 | CNS(=O)(=O)Cc1ccc2[nH]cc(CCN(C)C)c2c1 [sumatriptan succinate, Sumatriptan succinate] |  |  |  |  |
|  |  |  |  |  |  |  |  |  |  |  |  | Cn1c(=O)c2c(ncn2C)n(C)c1=O [caffeine, Caffeine] | 40 | ~2 | 100 | 2.5 |
